Data from patent EP3556767A1, “CELL PENETRATING PEPTIDES” (Universidade De Santiago De Compostela, priority 2018, dated 2019).
Where a SMILES comes first, the peptide text is derived from it. The star is where a group is joined. 5TAMRA = CN(C)c1ccc2c(c1)Oc1cc(N(C)C)ccc1C21OC(=O)c2cc(C(=O)*)ccc21; X1 = O=C(CON=CCO[C@H]1O[C@H](CO)[C@@H](O)[C@H](O)[C@@H]1O)*; X2 = CC(C)=NOCC(=O)*; Ahx = NCCCCCC(=O)O

Columns and labels:
HeLa cells [1] = assay: Viability in the presence of saporin (MTT); format: cell-based; settings: up to 30 µM, 1 h incubation, Figure 9
Procedure: Saporin (253 aa, 28 kDa) is a toxic protein from the group of the ribosome-inactivating proteins (RIP), which is not capable of reaching the cytosol by itself, although it can be passively internalized by pinocytosis if it is found in the culture medium, being retained in endosomes. Incubation of the cells with this protein in the presence of an endosomolytic agent causes the release of the protein to the cytosol and cell death.
For the experiment, HeLa cells were incubated in a 96-well plate with 10 µg/mL of saporin, and increasing concentrations of the P8 and R8 acetylated peptides.
The cells were co-incubated with the protein and peptide for 1 h in culture medium without serum or antibiotics, at which time the compounds were removed, washed and complete medium was added for 6 h, to allow the maturation of the endosomes and the escape of the toxin. At that time, MTT (tetrazolium salt) was added, cells were further incubated for 3 h, and the medium removed before solubilizing the formazan salt with DMSO. This viability test measures the reduction of MTT to formazan by mitochondrial activity, which can then be quantified by absorbance.

HeLa cells [2] = assay: Cell transport experiments (fluorescence microscopy, co-localization); format: cell-based; settings: for transport of ConA: ConA labelled with Alexa Fluor-647
Procedure: HeLa cells growing on four chamber glass bottom dishes were washed with HEPES-Krebs-Ringer (HKR) buffer (5 mM HEPES, 137 mM NaCl, 2.68 mM KCI, 2.05 mM MgCl2, 1.8 mM CaCl2, pH 7.4) and nuclei were stained by incubation with 1 µM Hoechst 33342 in HKR for 30 min. The CPP and protein were diluted in HKR and incubated for 7 min at room temperature to allow the formation of the complexes. Cells were washed with HKR and incubated with the complexes for another 30 min. Cells were washed again to remove excess peptide before performing epifluorescence microscopy using a Nikon Eclipse Ti-E inverted microscope or confocal microscopy with a Leica SP5 microscope. Images were analyzed with ImageJ and the co-localization parameters (Manders coefficients) were calculated using the Coloc2 plugin selecting the Costes method of threshold regression.

endosomes = assay: Dextran escape from endosomes; format: cell-based; settings: dextran 250 µg/ml; Figure 11
Procedure: Dextran is a polysaccharide (in this case labeled with a green fluorescent probe) known to internalize cells through the endocytic pathway. Thus, if the CPPs of the invention are capable of inducing release of dextrane from endosomes into the cytosol, the cell will display diffuse green fluorescence. The experiment was run by incubating dextran (250 µg/ml) in the presence of 5 µM of a CPP: (i) P8 marked with TAMRA, (ii) acetylated P8, and (iii) R8 as comparison.

[3] = test system: HeLa cells stably transfected with a plasmid carrying the LoxP-DsRED-STOP-LoxP-eGFP insert; assay: Cre recombinase protein cytosolic delivery (Cre Reporter system); format: cell-based; settings: 1 µM Cre recombinase protein
Procedure: In order to further test the capabilities of the CPPs of the invention to release macromolecules into the cytosol, a Cre recombinase delivery assay was done in the presence of P8. HeLa cells stably transfected with a plasmid carrying the LoxP-DsRED-STOP-LoxP-eGFP insert (Cre Reporter system) were incubated with 1 µM Cre recombinase protein and CPPs P8 or R8 at different concentrations.
These cells express normally the dsRED protein (red fluorescence), but when the Cre recombinase protein removes the dsRED ORF by recombination, the eGFP gene (green fluorescence) is expressed instead. Thus, the percentage of cells expressing eGFP can be used as a measure of the percentage of cells where the Cre Recombinase had been effectively released into the cytosol.

[4] = Circular dichroism, percentage of helicity; format: physicochemical; settings: 40°C; for % Helicity in Liposomes: egg yolk phosphatidylcholine liposomes
Procedure: Circular Dichroism (CD) measurements were performed with a Jasco J-1100 CD Spectrometer equipped with a Jasco MCB-100 Mini Circulation Bath for temperature control.
Circular dichroism measurements were carried out with the following settings: acquisition range: 300-190 nm; band width: 1.0 nm; accumulation: 3 scans; data pitch: 1 nm; CD scale 200 mdeg/1.0 dOD; D.I.T. (Data Integration Time): 1 s; scanning mode: continuous; scanning speed: 200 nm/min. Measurements were done from 10 °C to 60 °C (data interval: 10 °C; temp. gradient 5 °C/min) in a quartz cell of 0.2 cm path length at a final volume of 0.5 mL (H2O or TFE) with a final peptide concentration of 200 µM.
The results are expressed as the mean residue molar ellipticity [θ]MRt with units of degrees·cm^2.dmol^-1 and calculated using the equation S1.
The percentage of helicity was calculated using the equation S2. For the measurements in liposomes, samples were prepared by drying under reduced pressure L-α-phosphatidylcholine (16.7 µL, 25 mg/mL solution in CHCl3) and peptide (300 µL, 100 µM) in TFE to obtain a ratio lipid/peptide of 18:1 in a 10 mL round bottomed flask. The mixture was concentrated in a rotary evaporator to dryness, forming a film. The lipid/peptide mixture were suspended in HKR buffer (300 µL) to a final peptide concentration 100µM and sonicated for 45 min until a clear solution was obtained. Spectra were recorded in a 0.2 cm path length quartz cell. [formula]
Equation S1: Formula to calculate the ellipticity. θ is the ellipticity (mdeg), C is the peptide concentration (M) and I is the cell path length (cm). helicity % = (θMRt222nm−2340)/(30300) × 100 [formula]
Equation S2: Formula to calculate the percent of helicity in where the molar ellipticity at 222 nm is an absolute value.

HeLa cells [5] = assay: Quantification of the uptake by flow cytometry; format: cell-based; settings: TAMRA labelled peptides, 1, 3, 5, 7, 10 µM; Figure 3
Procedure: For internalization standard assays we measured the amount of peptide fluorescence in cells by flow cytometry. Briefly, semiconfluent monolayers of HeLa cells seeded the day before were washed twice with HKR before incubation with different concentrations (1, 3, 5, 7, 10 µM) of TAMRA labelled peptides diluted in cell culture medium without serum for 1 hour at 37 °C . Then, cells were trypsinized with 100 µL of Trypsin-EDTA (Gibco) for 10 min at 37 °C, and trypsin neutralized with 100 µL of 2 % FBS in PBS with 5 mM EDTA. Pipetting broke cell clumps and the analysis was done in a Guava easyCyte™ cytometer. TAMRA levels were determined by excitation at 532 nm and detection at 575/25 nm. For the analysis, cells with typical FSC and SSC parameters were selected, and median fluorescence intensity was calculated for each sample. Data analysis was performed with InCyte software included in GuavaSoft 3.2 (Millipore).
The results of uptake of CPP P8 in HeLa, A-549 and SF9 are depicted in Figure 5: Uptake quantification by flow cytometry in three different cell lines: HeLa cells, A549 cells and Sf9 cells. Data points were collected in triplicate at six different concentrations (0, 1, 3, 5, 7, 10 µM). Cells were treated in DMEM (-) (HeLa, A549), or Sf-900-II (-) (Sf9) for 1 hour prior to trypsinization and cytometry quantification. Error bars indicate SD of three replicates.

[6] = co-localization of peptide and ConA

CC(C)C[C@H](NC(=O)c1ccc2c(c1)C(=O)OC21c2ccc(N(C)C)cc2Oc2cc(N(C)C)ccc21)C(=O)N[C@@H](CCCNC(=N)N)C(=O)N[C@@H](C)C(=O)N[C@@H](CC(C)C)C(=O)N[C@@H](C)C(=O)N[C@@H](C)C(=O)N[C@@H](CC(C)C)C(=O)N[C@@H](C)C(=O)N[C@@H](CCCNC(=N)N)C(=O)N[C@@H](C)C(=O)N[C@@H](C)C(=O)N[C@@H](C)C(=O)N[C@@H](C)C(=O)N[C@@H](C)C(=O)N[C@@H](C)C(=O)N[C@@H](CCCNC(=N)N)C(N)=O [P8, TmL R ALAALA R A6 R] (5TAMRA-LRALAALARAAAAAAR-NH2)
toxicity to HeLa cells, peptide alone (HeLa cells [1]): little or no toxicity

CC(C)=NOCC(=O)NCCCC[C@H](NC(=O)[C@H](CCCNC(=N)N)NC(=O)CCCCCNC(=O)c1ccc2c(c1)C(=O)OC21c2ccc(N(C)C)cc2Oc2cc(N(C)C)ccc21)C(=O)N[C@@H](CC(C)C)C(=O)N[C@@H](CCCNC(=N)N)C(=O)N[C@@H](CCCNC(=N)N)C(=O)N[C@@H](CC(C)C)C(=O)N[C@@H](CC(C)C)C(=O)N[C@@H](CCCNC(=N)N)C(=O)N[C@@H](CCCNC(=N)N)C(=O)N[C@@H](CC(C)C)C(=O)N[C@@H](CCCCNC(=O)CON=C(C)C)C(=O)N[C@@H](CCCNC(=N)N)C(=O)N[C@@H](CC(C)C)C(N)=O [TmP(Acetone)2, reference compound] ({5TAMRA-Ahx}-RK(X2)LRRLLRRLK(X2)RL-NH2)
transport of ConA (HeLa cells [2]): did not complex or transport ConA

CC(C)C[C@H](NC(=O)[C@H](CCCNC(=N)N)NC(=O)[C@H](CCCCNC(=O)CON=CCO[C@H]1O[C@H](CO)[C@@H](O)[C@H](O)[C@@H]1O)NC(=O)[C@H](CC(C)C)NC(=O)[C@H](CCCNC(=N)N)NC(=O)[C@H](CCCNC(=N)N)NC(=O)[C@H](CC(C)C)NC(=O)[C@H](CC(C)C)NC(=O)[C@H](CCCNC(=N)N)NC(=O)[C@H](CCCNC(=N)N)NC(=O)[C@H](CC(C)C)NC(=O)[C@H](CCCCNC(=O)CON=CCO[C@H]1O[C@H](CO)[C@@H](O)[C@H](O)[C@@H]1O)NC(=O)[C@H](CCCNC(=N)N)NC(=O)CCCCCNC(=O)c1ccc2c(c1)C(=O)OC21c2ccc(N(C)C)cc2Oc2cc(N(C)C)ccc21)C(N)=O [TmP(Man)2] ({5TAMRA-Ahx}-RK(X1)LRRLLRRLK(X1)RL-NH2)
transport of ConA (HeLa cells [2]): the ConA cellular uptake was observed
Manders coefficients (peptide and protein co-localization) (HeLa cells [2]; approximate value given in the text): ~0.6
Manders' tM1 (Peptide) (HeLa cells [2]; [6]): 0.66
Manders' tM2 (Protein) (HeLa cells [2]; [6]): 0.63

Ac-LRALAALARAAAAAAR-NH2 [acetylated P8, AcL R ALAALA R A6 R]
concentration at which the peptide starts to release the dextran into the cytosol (endosomes): 10 µM
peptide concentration at the maximum percentage of eGFP expressing cells [3]: 10 µM
maximum percentage of eGFP expressing cells ([3]; Figure 10): 35%

TmHexA R AALLAA R AALA3 R [P3]
% Helicity in water [4]: 21.7%
% Helicity in Liposomes [4]: 12.7%

TmHexA R ALAALA R ALA4 R [P6]
% Helicity in water [4]: 35.1%
% Helicity in Liposomes [4]: 29.9%
uptake in living HeLa cells (HeLa cells [5]): perform better in the uptake test

TmHexL R A5L R A5L R [P5]
% Helicity in water [4]: 19.3%
% Helicity in Liposomes [4]: 29.5%
uptake in living HeLa cells (HeLa cells [5]): perform better in the uptake test
